Source: PMC3930583 (PLoS Pathogens, 2014)

Legend:
[1] = target: T1, GST-AvrBsT (Xanthomonas euvesicatoria, UniProt A0ABS8LK00); format: biochemical
[2] = target: T1, GST-AvrBsT; format: biochemical; remark: listed apart in the source

SMILES	14C autoacetylation with and without IP6, autoradiography [1]	14C autoacetylation, SDS-PAGE autoradiography [2]
O=P(O)(O)O[C@H]1[C@H](OP(=O)(O)O)[C@@H](OP(=O)(O)O)[C@H](OP(=O)(O)O)[C@@H](OP(=O)(O)O)[C@H]1OP(=O)(O)O [inositol hexakisphosphate]	Auto-acetylation of GST-AvrBsT was detected in the presence of IP6 but not its absence	–
CC(=O)SCCNC(=O)CCNC(=O)[C@H](O)C(C)(C)COP(=O)(O)OP(=O)(O)OC[C@H]1O[C@@H](n2cnc3c(N)ncnc32)[C@H](O)[C@@H]1OP(=O)(O)O [14C-acetyl-coenzyme A]	–	Wild-type GST-AvrBsT activity resulted in auto-acetylation of the enzyme and trans-acetylation of GST-ACIP1
